# From ChEMBL document CHEMBL3885881, “DrugMatrix”
# Species on record: Rattus norvegicus
# Experiment: DrugMatrix - Regimen: Daily Repeat
# Type: toxicity, organism-based, Sprague-Dawley
# Design: regimen Daily Repeat, gender Male, age 6-8 weeks
# Conditions: in vivo, po, route oral GAVAGE, vehicle .5 % CMC; for ABSOLUTE BASOPHIL / ABSOLUTE EOSINOPHIL / ABSOLUTE LYMPHOCYTE / ABSOLUTE MONOCYTE / ABSOLUTE SEGMENTED NEUTROPHIL / BASOPHIL / EOSINOPHIL / ERYTHROCYTE COUNT / HEMATOCRIT / HEMOGLOBIN / LEUKOCYTE COUNT / LYMPHOCYTE / MEAN CORPUSCULAR HEMOGLOBIN / MEAN CORPUSCULAR HEMOGLOBIN CONCENTRATION / MEAN CORPUSCULAR VOLUME / MONOCYTE / NEUTROPHIL / NUCLEATED RED BLOOD CELLS / PLATELET COUNT: tissue Blood; for ALANINE AMINOTRANSFERASE / ALBUMIN / ALKALINE PHOSPHATASE / ASPARTATE AMINOTRANSFERASE / BLOOD UREA NITROGEN / CARBON DIOXIDE / CHLORIDE / CHOLESTEROL / CREATINE PHOSPHOKINASE / CREATININE / GLUCOSE / LACTATE DEHYDROGENASE / LIPASE / PHOSPHORUS / POTASSIUM / SODIUM / TOTAL BILIRUBIN / TOTAL PROTEIN / URIC ACID: tissue Plasma
# [1] = 0 mg/kg, 72 h, dose level Control, time 3 day
# [2] = 0 mg/kg, 120 h, dose level Control, time 5 day
# [3] = […], 72 h, dose 0.83 mg/Kg, dose level Low, time 3 day
# [4] = […], 120 h, dose 0.83 mg/Kg, dose level Low, time 5 day
smiles,measurement,setting,value
C[C@]12CC[C@@H]3c4ccc(O)cc4CC[C@H]3[C@@H]1C[C@@H](O)[C@@H]2O [ESTRIOL],ABSOLUTE BASOPHIL,[1],0 CELLS/uL
same,ABSOLUTE EOSINOPHIL,[1],171.33 CELLS/uL
same,ABSOLUTE LYMPHOCYTE,[1],13776.5 CELLS/uL
same,ABSOLUTE MONOCYTE,[1],180.83 CELLS/uL
same,ABSOLUTE SEGMENTED NEUTROPHIL,[1],1121.33 CELLS/uL
same,BASOPHIL,[1],0%
same,EOSINOPHIL,[1],1%
same,ERYTHROCYTE COUNT,[1],5.56 x10E6/uL
same,HEMATOCRIT,[1],34.75%
same,HEMOGLOBIN,[1],13.68 G/DL
same,LEUKOCYTE COUNT,[1],15.25 x10E3/uL
same,LYMPHOCYTE,[1],90.17%
same,MEAN CORPUSCULAR HEMOGLOBIN,[1],24.6 pg
same,MEAN CORPUSCULAR HEMOGLOBIN CONCENTRATION,[1],39.4 G/DL
same,MEAN CORPUSCULAR VOLUME,[1],62.48 fL
same,MONOCYTE,[1],1.17%
same,NEUTROPHIL,[1],7.67%
same,NUCLEATED RED BLOOD CELLS,[1],0 /100WBC
same,PLATELET COUNT,[1],1342 x10E3/uL
same,ALANINE AMINOTRANSFERASE,[1],49.67 u/L
same,ALBUMIN,[1],4.15 G/DL
same,ALKALINE PHOSPHATASE,[1],346.83 u/L
same,ASPARTATE AMINOTRANSFERASE,[1],108.17 u/L
same,BLOOD UREA NITROGEN,[1],17.33 mg/dL
same,CARBON DIOXIDE,[1],25 mmol/L
same,CHLORIDE,[1],100.83 MEQ/L
same,CHOLESTEROL,[1],66.83 mg/dL
same,CREATINE PHOSPHOKINASE,[1],788 u/L
same,CREATININE,[1],0.18 mg/dL
same,GLUCOSE,[1],151.67 mg/dL
same,LACTATE DEHYDROGENASE,[1],982.5 u/L
same,LIPASE,[1],10.33 u/L
same,PHOSPHORUS,[1],11.23 mg/dL
same,POTASSIUM,[1],6.37 MEQ/L
same,SODIUM,[1],141.02 MEQ/L
same,TOTAL BILIRUBIN,[1],0.18 mg/dL
same,TOTAL PROTEIN,[1],5.9 G/DL
same,URIC ACID,[1],1.8 mg/dL
same,ABSOLUTE BASOPHIL,[2],0 CELLS/uL
same,ABSOLUTE EOSINOPHIL,[2],69 CELLS/uL
same,ABSOLUTE LYMPHOCYTE,[2],13632.83 CELLS/uL
same,ABSOLUTE MONOCYTE,[2],139.83 CELLS/uL
same,ABSOLUTE SEGMENTED NEUTROPHIL,[2],1225 CELLS/uL
same,BASOPHIL,[2],0%
same,EOSINOPHIL,[2],0.33%
same,ERYTHROCYTE COUNT,[2],5.52 x10E6/uL
same,HEMATOCRIT,[2],33.98%
same,HEMOGLOBIN,[2],13.22 G/DL
same,LEUKOCYTE COUNT,[2],15.07 x10E3/uL
same,LYMPHOCYTE,[2],90.83%
same,MEAN CORPUSCULAR HEMOGLOBIN,[2],23.95 pg
same,MEAN CORPUSCULAR HEMOGLOBIN CONCENTRATION,[2],38.9 G/DL
same,MEAN CORPUSCULAR VOLUME,[2],61.53 fL
same,MONOCYTE,[2],0.83%
same,NEUTROPHIL,[2],8%
same,NUCLEATED RED BLOOD CELLS,[2],0 /100WBC
same,PLATELET COUNT,[2],1196 x10E3/uL
same,ALANINE AMINOTRANSFERASE,[2],49.17 u/L
same,ALBUMIN,[2],4.2 G/DL
same,ALKALINE PHOSPHATASE,[2],352.33 u/L
same,ASPARTATE AMINOTRANSFERASE,[2],89.67 u/L
same,BLOOD UREA NITROGEN,[2],18 mg/dL
same,CARBON DIOXIDE,[2],27.67 mmol/L
same,CHLORIDE,[2],101 MEQ/L
same,CHOLESTEROL,[2],72.83 mg/dL
same,CREATINE PHOSPHOKINASE,[2],417.5 u/L
same,CREATININE,[2],0.18 mg/dL
same,GLUCOSE,[2],150.5 mg/dL
same,LACTATE DEHYDROGENASE,[2],517.33 u/L
same,LIPASE,[2],9 u/L
same,PHOSPHORUS,[2],11.87 mg/dL
same,POTASSIUM,[2],6.57 MEQ/L
same,SODIUM,[2],143.62 MEQ/L
same,TOTAL BILIRUBIN,[2],0.2 mg/dL
same,TOTAL PROTEIN,[2],6.08 G/DL
same,URIC ACID,[2],1.45 mg/dL
same,ABSOLUTE BASOPHIL,[3],0 CELLS/uL
same,ABSOLUTE EOSINOPHIL,[3],41 CELLS/uL
same,ABSOLUTE LYMPHOCYTE,[3],11813.33 CELLS/uL
same,ABSOLUTE MONOCYTE,[3],115.33 CELLS/uL
same,ABSOLUTE SEGMENTED NEUTROPHIL,[3],930.33 CELLS/uL
same,BASOPHIL,[3],0%
same,EOSINOPHIL,[3],0.33%
same,ERYTHROCYTE COUNT,[3],5.37 x10E6/uL
same,HEMATOCRIT,[3],33.8%
same,HEMOGLOBIN,[3],13.17 G/DL
same,LEUKOCYTE COUNT,[3],12.9 x10E3/uL
same,LYMPHOCYTE,[3],91.33%
same,MEAN CORPUSCULAR HEMOGLOBIN,[3],24.53 pg
same,MEAN CORPUSCULAR HEMOGLOBIN CONCENTRATION,[3],38.97 G/DL
same,MEAN CORPUSCULAR VOLUME,[3],62.9 fL
same,MONOCYTE,[3],1%
same,NEUTROPHIL,[3],7.33%
same,NUCLEATED RED BLOOD CELLS,[3],0 /100WBC
same,PLATELET COUNT,[3],1229.33 x10E3/uL
same,ALANINE AMINOTRANSFERASE,[3],41.67 u/L
same,ALBUMIN,[3],4.13 G/DL
same,ALKALINE PHOSPHATASE,[3],500 u/L
same,ASPARTATE AMINOTRANSFERASE,[3],89.33 u/L
same,BLOOD UREA NITROGEN,[3],17.67 mg/dL
same,CARBON DIOXIDE,[3],23.67 mmol/L
same,CHLORIDE,[3],103.67 MEQ/L
same,CHOLESTEROL,[3],36 mg/dL
same,CREATINE PHOSPHOKINASE,[3],654.33 u/L
same,CREATININE,[3],0.23 mg/dL
same,GLUCOSE,[3],162 mg/dL
same,LACTATE DEHYDROGENASE,[3],616.67 u/L
same,LIPASE,[3],10.67 u/L
same,PHOSPHORUS,[3],11.97 mg/dL
same,POTASSIUM,[3],6.03 MEQ/L
same,SODIUM,[3],144.8 MEQ/L
same,TOTAL BILIRUBIN,[3],0.17 mg/dL
same,TOTAL PROTEIN,[3],6 G/DL
same,URIC ACID,[3],1.6 mg/dL
same,ABSOLUTE BASOPHIL,[4],0 CELLS/uL
same,ABSOLUTE EOSINOPHIL,[4],0 CELLS/uL
same,ABSOLUTE LYMPHOCYTE,[4],12894 CELLS/uL
same,ABSOLUTE MONOCYTE,[4],233.33 CELLS/uL
same,ABSOLUTE SEGMENTED NEUTROPHIL,[4],972.67 CELLS/uL
same,BASOPHIL,[4],0%
same,EOSINOPHIL,[4],0%
same,ERYTHROCYTE COUNT,[4],5.98 x10E6/uL
same,HEMATOCRIT,[4],36.97%
same,HEMOGLOBIN,[4],13.8 G/DL
same,LEUKOCYTE COUNT,[4],14.1 x10E3/uL
same,LYMPHOCYTE,[4],91.33%
same,MEAN CORPUSCULAR HEMOGLOBIN,[4],23.07 pg
same,MEAN CORPUSCULAR HEMOGLOBIN CONCENTRATION,[4],37.33 G/DL
same,MEAN CORPUSCULAR VOLUME,[4],61.87 fL
same,MONOCYTE,[4],1.67%
same,NEUTROPHIL,[4],7%
same,NUCLEATED RED BLOOD CELLS,[4],0 /100WBC
same,PLATELET COUNT,[4],1068.67 x10E3/uL
same,ALANINE AMINOTRANSFERASE,[4],43.67 u/L
same,ALBUMIN,[4],4.23 G/DL
same,ALKALINE PHOSPHATASE,[4],477 u/L
same,ASPARTATE AMINOTRANSFERASE,[4],80.33 u/L
same,BLOOD UREA NITROGEN,[4],17.33 mg/dL
same,CARBON DIOXIDE,[4],26.33 mmol/L
same,CHLORIDE,[4],101.67 MEQ/L
same,CHOLESTEROL,[4],36.33 mg/dL
same,CREATINE PHOSPHOKINASE,[4],414 u/L
same,CREATININE,[4],0.19 mg/dL
same,GLUCOSE,[4],148.33 mg/dL
same,LACTATE DEHYDROGENASE,[4],577 u/L
same,LIPASE,[4],8.33 u/L
same,PHOSPHORUS,[4],10.9 mg/dL
same,POTASSIUM,[4],6.26 MEQ/L
same,SODIUM,[4],144.2 MEQ/L
same,TOTAL BILIRUBIN,[4],0.23 mg/dL
same,TOTAL PROTEIN,[4],6.3 G/DL
same,URIC ACID,[4],1.63 mg/dL
